One assay has as its target SIK2 (Homo sapiens, UniProt Q9H0K1). Briefly: SIK2 Enzymatic Assay High Version 2 (High ATP). It counts as biochemical.
Conditions: not given
The method in brief: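 At room temperature, enzyme (6 nM, 2× final) was preincubated with compound for 30 min, then 6 mM ATP and 400 μM HDAC5tide (both 2× final) were added for 2 h. ADP formed was measured by ADP-Glo Max (2 h reagent, 1 h detection) using luminescence.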
Chain of SIK2 (Q9H0K1 whole entry, species assumed): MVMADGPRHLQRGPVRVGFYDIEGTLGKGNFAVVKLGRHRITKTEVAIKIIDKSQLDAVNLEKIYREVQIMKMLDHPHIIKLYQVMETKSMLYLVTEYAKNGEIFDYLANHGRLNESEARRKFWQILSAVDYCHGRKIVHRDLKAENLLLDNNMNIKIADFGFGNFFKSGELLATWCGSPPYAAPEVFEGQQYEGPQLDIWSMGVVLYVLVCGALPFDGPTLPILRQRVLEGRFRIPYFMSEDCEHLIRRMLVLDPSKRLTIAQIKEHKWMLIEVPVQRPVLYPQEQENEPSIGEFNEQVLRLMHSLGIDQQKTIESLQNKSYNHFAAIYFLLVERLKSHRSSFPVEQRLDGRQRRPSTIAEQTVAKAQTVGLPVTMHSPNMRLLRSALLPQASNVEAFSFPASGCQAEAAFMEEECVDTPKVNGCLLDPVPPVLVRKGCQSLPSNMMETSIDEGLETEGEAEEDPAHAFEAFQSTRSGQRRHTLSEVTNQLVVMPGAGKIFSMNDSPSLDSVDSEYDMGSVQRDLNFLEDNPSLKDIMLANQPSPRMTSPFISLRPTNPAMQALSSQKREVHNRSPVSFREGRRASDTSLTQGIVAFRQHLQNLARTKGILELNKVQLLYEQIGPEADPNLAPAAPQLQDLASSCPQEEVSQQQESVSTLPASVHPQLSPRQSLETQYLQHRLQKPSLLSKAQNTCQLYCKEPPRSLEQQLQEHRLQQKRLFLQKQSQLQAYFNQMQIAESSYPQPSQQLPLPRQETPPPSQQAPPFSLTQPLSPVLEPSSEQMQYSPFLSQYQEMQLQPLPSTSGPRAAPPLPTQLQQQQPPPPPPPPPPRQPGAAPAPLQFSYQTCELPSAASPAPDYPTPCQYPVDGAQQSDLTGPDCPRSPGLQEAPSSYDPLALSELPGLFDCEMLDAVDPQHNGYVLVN
For orientation: IC50 means the concentration needed to halve the response being measured. For `Cc1cc(-c2ccn3nc(Nc4cc(C)nc(C)n4)cc3c2)c(OC[C@H]2CC[C@H](O)CO2)cn1` (single isomer, unassigned) [Example 347, (3*S,6*S)-6-[[4-[2-[(2,6-dimethylpyrimidin-4-yl)amino]pyrazolo[1,5-a]pyridin-5-yl]-6-methyl-3-pyridyl]oxymethyl]tetrahydropyran-3-ol], the IC50 is 0.0352 µM. With `Cc1cc(-c2ccn3nc(Nc4ncc(F)cn4)cc3c2)c(O[C@H]2C[C@H]3COC[C@@H](C2)N3)cn1` [Example 404, N-(5-fluoropyrimidin-2-yl)-5-[2-methyl-5-[[(1S,5R,7s)-3-oxa-9-azabicyclo[3.3.1]nonan-7-yl]oxy]-4-pyridyl]pyrazolo[1,5-a]pyridin-2-amine], the IC50 was 0.058 µM.

`Cc1cc(-c2ccn3nc(Nc4cc(C(F)(F)F)n(C)n4)cc3c2)c(O[C@H]2C[C@H]3COC[C@@H](C2)N3)cn1` [Example 379, 5-[2-methyl-5-[[(1S,5R,7s)-3-oxa-9-azabicyclo[3.3.1]nonan-7-yl]oxy]-4-pyridyl]-N-[1-methyl-5-(trifluoromethyl)pyrazol-3-yl]pyrazolo[1,5-a]pyridin-2-amine]: the IC50 was 0.00125 µM. `CCN1CC[C@H]1COc1cnc(C)cc1-c1ccn2nc(NC(=O)C3CC3)cc2c1` [Example 605, N-[5-[5-[[(2S)-1-ethylazetidin-2-yl]methoxy]-2-methyl-4-pyridyl]pyrazolo[1,5-a]pyridin-2-yl]cyclopropanecarboxamide] came in with an IC50 of 0.316 µM.

Turning to `CC(=O)N1[C@@H]2COC[C@H]1C[C@@H](Oc1cnc(C)cc1-c1ccn3nc(Nc4cc(C)nc(C)n4)cc3c1)C2` [Example 627, 1-((1R,5S,7s)-7-((4-(2-((2,6-dimethylpyrimidin-4-yl)amino)pyrazolo[1,5-a]pyridin-5-yl)-6-methylpyridin-3-yl)oxy)-3-oxa-9-azabicyclo[3.3.1]nonan-9-yl)ethan-1-one], the 50% inhibitory concentration (IC50) was 0.0651 µM. Still for that read-out and setting: as for `CNC(=O)c1ccnc(Nc2cc3cc(-c4cc(C)ncc4O[C@H]4C[C@H]5COC[C@@H](C4)N5S(=O)(=O)C4CC4)ccn3n2)c1` [Example 635, 2-((5-(5-(((1R,5S,7s)-9-(cyclopropylsulfonyl)-3-oxa-9-azabicyclo[3.3.1]nonan-7-yl)oxy)-2-methylpyridin-4-yl)pyrazolo[1,5-a]pyridin-2-yl)amino)-N-methylisonicotinamide], the figure is 0.00197 µM. Same read-out and setting: the value for `O=C(Nc1cc2cc(-c3cc(Cl)ncc3O[C@@H]3C[C@H]4COC[C@@H](C3)N4)ccn2n1)C1CC1` [Example 492, N-[5-[2-chloro-5-[[(1S,5R)-3-oxa-9-azabicyclo[3.3.1]nonan-7-yl]oxy]-4-pyridyl]pyrazolo[1,5-a]pyridin-2-yl]cyclopropanecarboxamide] was 0.0516 µM; that for `Cc1cc(-c2ccn3nc(Nc4ccc(C)nn4)cc3c2)c(O[C@@H]2[C@@H]3CO[C@H]2CN3)cn1` [Example 523, 5-[2-methyl-5-[[(1S,4S,7R)-2-oxa-5-azabicyclo[2.2.1]heptan-7-yl]oxy]-4-pyridyl]-N-(6-methylpyridazin-3-yl)pyrazolo[1,5-a]pyridin-2-amine] was 0.00462 µM. Still for that read-out and setting: as for `Cc1cc(-c2ccn3nc(Nc4cc(C(=O)NC(C)C)n(C)n4)cc3c2)c(O[C@H]2C[C@H]3COC[C@@H](C2)N3)cn1` [Example 341, N-isopropyl-2-methyl-5-[[5-[2-methyl-5-[[(1S,5R)-3-oxa-9-azabicyclo[3.3.1]nonan-7-yl]oxy]-4-pyridyl]pyrazolo[1,5-a]pyridin-2-yl]amino]pyrazole-3-carboxamide], the figure is under 0.000847 µM; as for `Cc1cc(-c2ccn3nc(Nc4cnn(CC(C)(C)O)c4)cc3c2)c(O[C@H]2C[C@H]3COC[C@@H](C2)N3)cn1` [Example 121], 0.00116 µM.

Compound `CNC(=O)c1ccc(Nc2cc3cc(-c4cc(C)ncc4O[C@H]4C[C@H]5COC[C@@H](C4)N5C(C)=O)ccn3n2)nc1` [Example 356, 6-[[5-[5-[[(1S,5R)-9-acetyl-3-oxa-9-azabicyclo[3.3.1]nonan-7-yl]oxy]-2-methyl-4-pyridyl]pyrazolo[1,5-a]pyridin-2-yl]amino]-N-methyl-pyridine-3-carboxamide] yielded an IC50 of under 0.000847 µM.

The assay is the same for the next values; noted with them: enzyme 6 nM, 6 mM ATP and 400 μM HDAC5tide (each 2× final concentration); 30 minutes pre-incubation, 2 hours; ADP-Glo Max luminescence; read-out: SIK2 high ATP IC50 (μM) (Test Example 2).
Take `COCc1nc(C)cc(Nc2cc3cc(-c4cc(C)ncc4OCC(C)(C)O)ccn3n2)n1` [Example 205, 1-[[4-[2-[[2-(methoxymethyl)-6-methyl-pyrimidin-4-yl]amino]pyrazolo[1,5-a]pyridin-5-yl]-6-methyl-3-pyridyl]oxy]-2-methyl-propan-2-ol]: the IC50 stood at 0.0181 µM. The same measure, in the same setting: the value for `Cc1cc(-c2ccn3nc(NC(=O)C4CC4)cc3c2)c(OC[C@]2(F)CCNC2)cn1` (single isomer, unassigned) [Example 448, (*S)—N-[5-[5-[(3-fluoropyrrolidin-3-yl)methoxy]-2-methyl-4-pyridyl]pyrazolo[1,5-a]pyridin-2-yl]cyclopropanecarboxamide] was 0.0469 µM; that for `Cc1cc(-c2ccn3nc(NC(=O)C4CC4)cc3c2)c(OC2CCC(O)(C(C)C)CC2)cn1` (stereo not drawn) [Example 196] was 0.00247 µM; that for `Cc1cc(-c2ccn3nc(Nc4cc(C)nc(C)n4)cc3c2)c(OCC(C)(O)C(F)(F)F)cn1` (single isomer, unassigned) [Example 263, (*S)-3-[[4-[2-[(2,6-dimethylpyrimidin-4-yl)amino]pyrazolo[1,5-a]pyridin-5-yl]-6-methyl-3-pyridyl]oxy]-1,1,1-trifluoro-2-methyl-propan-2-ol] was 0.00844 µM. For the compound `Cc1cc(-c2ccn3nc(Nc4cc(C)nc(C)n4)cc3c2)c(O[C@H]2CC[C@H](S(C)(=O)=O)CC2)cn1` [Example 266, N-(2,6-dimethylpyrimidin-4-yl)-5-[2-methyl-5-(4-methylsulfonylcyclohexoxy)-4-pyridyl]pyrazolo[1,5-a]pyridin-2-amine], the IC50 turned out to be 0.00338 µM. Consider `Cc1cc(-c2ccn3nc(NC(=O)C4CC4)cc3c2)c(O[C@H]2CCN[C@@H](C(F)(F)F)C2)cn1` (single isomer, unassigned) [Example 446], for which the IC50 worked out at 0.00318 µM. Still for that read-out and setting: as for `Cc1cc(Nc2cc3cc(-c4cc(NCC(F)F)ncc4OCC(C)(C)C#N)ccn3n2)nc(C)n1` [Example 667, 3-[[6-(2,2-difluoroethylamino)-4-[2-[(2,6-dimethylpyrimidin-4-yl)amino]pyrazolo[1,5-a]pyridin-5-yl]-3-pyridyl]oxy]-2,2-dimethyl-propanenitrile], the figure is 0.0127 µM; as for `Cc1cc(-c2ccn3nc(Nc4cc(C)nc(C)n4)cc3c2)c(OC[C@@H]2CC3(CCC3)CO2)cn1` (single isomer, unassigned) [Example 220, (*S)-5-(5-((6-oxaspiro[3.4]octan-7-yl)methoxy)-2-methylpyridin-4-yl)-N-(2,6-dimethylpyrimidin-4-yl)pyrazolo[1,5-a]pyridin-2-amine], 0.0142 µM; as for `Cc1cc(-c2ccn3nc(Nc4cc(C)nc(C)n4)cc3c2)c(O[C@H]2CC[C@H](C#N)CC2)cn1` [Example 581, (1r,4r)-4-((4-(2-((2,6-dimethylpyrimidin-4-yl)amino)pyrazolo[1,5-a]pyridin-5-yl)-6-methylpyridin-3-yl)oxy)cyclohexane-1-carbonitrile], 0.0838 µM. On the same count and under the same terms, as for `Cc1cc(-c2ccn3nc(Nc4nn(C)c5ncccc45)cc3c2)c(OCC(C)(C)O)cn1` [Example 292, 2-methyl-1-[[6-methyl-4-[2-[(1-methylpyrazolo[3,4-b]pyridin-3-yl)amino]pyrazolo[1,5-a]pyridin-5-yl]-3-pyridyl]oxy]propan-2-ol], the figure is 0.0187 µM; as for “(*S)-4-[[6-(difluoromethoxy)-4-[2-[(2,6-dimethylpyrimidin-4-yl)amino]pyrazolo[1,5-a]pyridin-5-yl]-3-pyridyl]oxymethyl]-1,5,5-trimethyl-pyrrolidin-2-one [Example 741]”, 0.00266 µM; as for `CC(C)(C#N)COc1cnc(OC(F)F)cc1-c1ccn2nc(Nc3ccc(CN4CCOCC4)cn3)cc2c1` [Example 695, 3-[[6-(difluoromethoxy)-4-[2-[[5-(morpholinomethyl)-2-pyridyl]amino]pyrazolo[1,5-a]pyridin-5-yl]-3-pyridyl]oxy]-2,2-dimethyl-propanenitrile], 0.117 µM. On the same count and under the same terms, as for `Cc1cc(-c2ccn3nc(Nc4cc(C)nc(C)n4)cc3c2)c(OC[C@@H]2COC3(CCCC3)O2)cn1` (single isomer, unassigned) [Example 543, (*R)—N-(2,6-dimethylpyrimidin-4-yl)-5-[5-(6,9-dioxaspiro[4.4]nonan-8-ylmethoxy)-2-methyl-4-pyridyl]pyrazolo[1,5-a]pyridin-2-amine], the figure is 0.016 µM; as for `Cc1cc(-c2ccn3nc(Nc4cc(C)c(=O)n(C)n4)cc3c2)c(OC2CCC(S(C)(=O)=O)CC2)cn1` (single isomer, unassigned) [Example 306, 2,4-dimethyl-6-((5-(2-methyl-5-(((1r,4r)-4-(methylsulfonyl)cyclohexyl)oxy)pyridin-4-yl)pyrazolo[1,5-a]pyridin-2-yl)amino)pyridazin-3(2H)-one], 0.0358 µM; as for `Cc1cc(Nc2cc3cc(-c4cc(OC(F)F)ncc4OCC(C)(C)O)ccn3n2)nc(C)n1` [Example 679, 1-[[6-(difluoromethoxy)-4-[2-[(2,6-dimethylpyrimidin-4-yl)amino]pyrazolo[1,5-a]pyridin-5-yl]-3-pyridyl]oxy]-2-methyl-propan-2-ol], 0.00319 µM.

Turning to `Cc1cc(Nc2cc3cc(-c4cc(OC(F)F)ncc4OCC(C)(C)C#N)ccn3n2)nc(N)n1` [Example 682, 3-[[4-[2-[(2-amino-6-methyl-pyrimidin-4-yl)amino]pyrazolo[1,5-a]pyridin-5-yl]-6-(difluoromethoxy)-3-pyridyl]oxy]-2,2-dimethyl-propanenitrile], the IC50 was under 0.000847 µM.

The record behind these values is patent publication US20240158392A1 (Janssen Biotech, Inc., priority 2021, published 2024).
